Measurements: ChEMBL document CHEMBL1201862, “PubChem BioAssay data set” (2004)
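Step 1: Grow cells in 96-well plates. Step 2: Expose to compound for 48 hours at 5 concentrations. Step 3: Interpolate endpoints linearly; if unreached, use highest concentration. The concentration for 50% growth inhibition is given as GI50.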 Calls of active or inactive are those of the source. Cut-off read from the data, not from the text of the source: active = GI50 up to about 1.1 µM and inactive = higher.

What was measured:
Assay in all cases: inhibition of tumour cell growth, NCI panel, 48 h
UACC-257 = system: UACC-257
K562 = system: K562
T47D = system: T47D
HCT-116 = system: HCT-116
EKVX = system: EKVX
OVCAR-8 = system: OVCAR-8
IGROV-1 = system: IGROV-1
CCRF-CEM = system: CCRF-CEM
SF-539 = system: SF-539
TK-10 = system: TK-10
PC-3 = system: PC-3
OVCAR-5 = system: OVCAR-5
U-251 = system: U-251
HL-60 = system: HL-60
SW-620 = system: SW-620
OVCAR-4 = system: OVCAR-4
LOX IMVI = system: LOX IMVI
UO-31 = system: UO-31
SNB-19 = system: SNB-19
RPMI-8226 = system: RPMI-8226

SMILES	GI50 (UACC-257)	GI50 (K562)	GI50 (T47D)	GI50 (HCT-116)	GI50 (EKVX)	GI50 (OVCAR-8)	GI50 (IGROV-1)	GI50 (CCRF-CEM)	GI50 (SF-539)	GI50 (TK-10)	GI50 (PC-3)	GI50 (OVCAR-5)	GI50 (U-251)	GI50 (HL-60)	GI50 (SW-620)	GI50 (OVCAR-4)	GI50 (LOX IMVI)	GI50 (UO-31)	GI50 (SNB-19)	GI50 (RPMI-8226)
ClC(Cl)(Cl)C1CCOC1n1nnc2ccccc21 (centres undefined)	> 100 µM (inactive)	24.1 µM (inactive)	> 100 µM (inactive)	92.9 µM (inactive)	> 100 µM (inactive)	> 100 µM (inactive)	> 100 µM (inactive)	44.1 µM (inactive)	> 100 µM (inactive)	> 100 µM (inactive)	> 100 µM (inactive)	> 100 µM (inactive)	90.4 µM (inactive)	11.9 µM (inactive)						
CCOC(CN(C)C(=O)OCC(Cl)(Cl)Cl)OCC	33.4 µM (inactive)	39.9 µM (inactive)		41.5 µM (inactive)	> 100 µM (inactive)	> 100 µM (inactive)	> 100 µM (inactive)	56.6 µM (inactive)	> 100 µM (inactive)	> 100 µM (inactive)	23.3 µM (inactive)	> 100 µM (inactive)	74.8 µM (inactive)	21.6 µM (inactive)	> 100 µM (inactive)	77.1 µM (inactive)	57.9 µM (inactive)	27.6 µM (inactive)	> 100 µM (inactive)	
CC1CC[C@@]2(OC1)OC1CC3C4CCC5C[C@@H](OC6OC(CO)C(OC7OC(CO)C(O)C(OC8OC(CO)C(O)C(OC9OC(CO)C(O)C(O)C9O)C8O)C7OC7OC(CO)C(O)C(O)C7O)C(O)C6O)[C@H](O)C[C@]5(C)C4CC[C@]3(C)C1[C@@H]2C (some centres undefined)	> 80.5 µM (inactive)	> 80.5 µM (inactive)	> 80.5 µM (inactive)	> 80.5 µM (inactive)	> 80.5 µM (inactive)	> 80.5 µM (inactive)		> 80.5 µM (inactive)	> 80.5 µM (inactive)	> 80.5 µM (inactive)	> 80.5 µM (inactive)	> 80.5 µM (inactive)	> 80.5 µM (inactive)	> 80.5 µM (inactive)	> 80.5 µM (inactive)	> 80.5 µM (inactive)	> 80.5 µM (inactive)		> 80.5 µM (inactive)	
Nc1ccc(Oc2ccc(C34CC5CC(C3)CC(c3ccc(Oc6ccc(N)cc6C(F)(F)F)cc3)(C5)C4)cc2)c(C(F)(F)F)c1	18.7 µM (inactive)	44 µM (inactive)	15.1 µM (inactive)	24.9 µM (inactive)	15.5 µM (inactive)	16 µM (inactive)	19.5 µM (inactive)	36.1 µM (inactive)		16.1 µM (inactive)	14.8 µM (inactive)	27 µM (inactive)	14.5 µM (inactive)	24.2 µM (inactive)	36.3 µM (inactive)	36.6 µM (inactive)	17.9 µM (inactive)	39.1 µM (inactive)	22.5 µM (inactive)	
CC(O)CN1c2ccccc2Sc2ccccc21 (centres undefined)	> 100 µM (inactive)	> 100 µM (inactive)	> 100 µM (inactive)	> 100 µM (inactive)	> 100 µM (inactive)	> 100 µM (inactive)	> 100 µM (inactive)	> 100 µM (inactive)	> 100 µM (inactive)	> 100 µM (inactive)	> 100 µM (inactive)	> 100 µM (inactive)	> 100 µM (inactive)		> 100 µM (inactive)	> 100 µM (inactive)	> 100 µM (inactive)	> 100 µM (inactive)	> 100 µM (inactive)	
CC(C)(C)C1=C(Br)C(OC(=O)C(F)(F)F)(C(C)(C)C)OP1(=O)c1ccccc1 (centres undefined)	72.9 µM (inactive)	25.5 µM (inactive)	30 µM (inactive)	33 µM (inactive)	23.8 µM (inactive)	34.7 µM (inactive)	35.7 µM (inactive)		37.9 µM (inactive)	79.3 µM (inactive)	18.1 µM (inactive)	> 100 µM (inactive)	35.6 µM (inactive)	24.8 µM (inactive)		49.1 µM (inactive)	45.8 µM (inactive)	52.5 µM (inactive)	57.4 µM (inactive)	
Cc1ccc(/C=C2/NC(=S)SC2=O)cc1	31.4 µM (inactive)		31.3 µM (inactive)	30.5 µM (inactive)	28.4 µM (inactive)	31 µM (inactive)	37.7 µM (inactive)		30 µM (inactive)	18.1 µM (inactive)	38.4 µM (inactive)	40.8 µM (inactive)	43.9 µM (inactive)	27.4 µM (inactive)	54.2 µM (inactive)	28.9 µM (inactive)	32.8 µM (inactive)	24.5 µM (inactive)	29.5 µM (inactive)	
OC1(C2(c3ccc(Cl)cc3)CCCC2)c2ccccc2C2=NCCN21 (centres undefined)	14.2 µM (inactive)	4.81 µM (inactive)	6.43 µM (inactive)	11.7 µM (inactive)	16.9 µM (inactive)	17.3 µM (inactive)	12.9 µM (inactive)	14.4 µM (inactive)		15.1 µM (inactive)	11.9 µM (inactive)	15.8 µM (inactive)	14.2 µM (inactive)	14.4 µM (inactive)	22.8 µM (inactive)	12.9 µM (inactive)	14.4 µM (inactive)	11.7 µM (inactive)	16.4 µM (inactive)	
CCN(CC)c1ccc2cc(C(=O)Nc3ccccn3)c(=N)oc2c1	> 100 µM (inactive)	> 100 µM (inactive)	99.8 µM (inactive)	55.5 µM (inactive)	> 100 µM (inactive)	36.3 µM (inactive)	> 100 µM (inactive)	> 100 µM (inactive)	43.5 µM (inactive)			80.2 µM (inactive)	37.9 µM (inactive)	> 100 µM (inactive)	> 100 µM (inactive)	> 100 µM (inactive)	71.1 µM (inactive)		19.1 µM (inactive)	> 100 µM (inactive)
CN(Cc1cnc2c(n1)C(N)=NN(N)N2)c1ccc(C(=O)NC(CCP(=O)(O)O)C(=O)O)cc1 (centres undefined)	> 100 µM (inactive)	> 100 µM (inactive)	> 100 µM (inactive)	0.45 µM (active)	> 43.3 µM (inactive)	> 36.2 µM (inactive)	4.86 µM (inactive)	0.267 µM (active)	3.47 µM (inactive)	> 100 µM (inactive)			> 91 µM (inactive)	0.252 µM (active)	1.53 µM (inactive)	> 100 µM (inactive)	0.637 µM (active)	> 19.9 µM (inactive)	> 30.7 µM (inactive)	
O=C1NC(O)c2ccccc2O1 (centres undefined)	> 100 µM (inactive)	> 100 µM (inactive)		> 100 µM (inactive)	> 100 µM (inactive)	> 100 µM (inactive)	> 100 µM (inactive)	> 100 µM (inactive)	> 100 µM (inactive)	> 100 µM (inactive)	> 100 µM (inactive)	> 100 µM (inactive)	> 100 µM (inactive)	> 100 µM (inactive)	> 100 µM (inactive)	> 100 µM (inactive)	> 100 µM (inactive)	> 100 µM (inactive)	> 100 µM (inactive)	
